# Assay results: PMC3747139 (PLoS ONE, 2013)
# Where “and” joins values, the source holds several entries; their conditions need not be identical. Equal entries are not always repeated. Where two headings read alike, the source gives them in different places.
# How the values were obtained:
# B16F10 melanoma cells [1] = experiment: Preclinical study: tumor size in tumor-induced mice; format: in vivo; details: C57BL6/J mice with B16F10 tumor; 200 µM L1, 125 µM L2, 50 µM L3; end of experiment
# Procedure: (§1) C57BL6/J mice were used from the animal house facility located at CCMB (Hyderabad, India). All animal experimental studies were carried out in strict accordance with the recommendations in the guide for the care and use of laboratory animals of Centre for Cellular and Molecular Biology (CCMB). All the animal experimental protocols were approved by the Institutional Animal Ethical Committee (IAEC) of Centre for Cellular and Molecular Biology (CCMB with Permit number: CPCSEA 20/1999, Ministry of Environment and Forest, Government of India).The protocol was approved by the Institutional Animal Ethical Committee (IAEC) of CCMB (Protocol number: IAEC 16/2012). All the surgery was performed under sodium pentobarbital anaesthesia, and all efforts were made to minimize suffering. C57BL6/J mice, 6–8 weeks old, were subcutaneously injected with 2×10^5 B16F10 melanoma cells, in the […] region. After the tumor attained a size of 500–1000 mm^3 (≈9 days following cancer cell implantation), mice were grouped and treated as follows.
# (§2) Group (i) was treated with vehicle control (4 mice), group (ii) with 200 µM of L1 (4 mice), group (iii) with 125 µM of L2 (4 mice) and group (iv) with 50 µM of L3 (4 mice). These experiments were repeated thrice and mean values were considered. Size of tumor was measured every day at a fixed time. The tumor sizes were calculated using the formula (0.5 ab^2), where ‘a’ was the largest dimension and ‘b’ was the smallest dimension of the tumor. The experiment was terminated when the average tumor volume of the control/treated group was 10000–12000 mm^3.
# B16F10 melanoma cells [2] = experiment: Preclinical study: survival of tumor-induced mice; format: in vivo, C57BL6/J mice; details: 200 µM L1, 125 µM L2, 50 µM L3 on alternate days for 2 weeks
# Procedure: as §1, §2
# B16F10 cells [3] = experiment: Flow cytometry Annexin V / PI dot plot; format: cell-based, human; details: 200 µM L1, 125 µM L2, 50 µM L3, 3 h
# Procedure: (§3) Since MTT and cell culture assays yielded encouraging results with B16F10 cells they were used for confocal and flow cytometry experiments. After 90% confluence, the cells were treated with 200 µM, 125 µM and 50 µM of L1, L2, L3 respectively, for 3 h. 1×10^6 cells were washed with 2× binding buffer and resuspended in 100 µl binding buffer and Annexin-V-FITC (1.0 µg). The cells were then incubated at room temperature for 10 min, followed by the addition of 400 µl of binding buffer containing 1 µl of Propidium Iodide (PI). Stained cells were analyzed using FACS Calibur Flow Cytometer from B.D. Biosceinces (USA). Annexin-V-FITC and PI labelled cells were excited using 488 nm solid-state laser and fluorescence emission intensity was captured using 530/30 and 585/42 band pass filters respectively.
# [4] = Cell count assay (trypan blue); format: cell-based; design: concentration or dose not given beside the values; details: human; for viability at 24 h: read-out: Number of viable cells after 24 h of ligand treatment; for viability at 48 h: read-out: Number of viable cells after 48 h of ligand treatment
# Procedure: Normal and tumor cell lines were seeded at 20000–40000 cells/cm^2 with 0.2 mL/cm^2 media and incubated for 48 h at 37°C, 6% CO2, 95% relative humidity. […] After 24 h and 48 h of incubation, cells were washed with 300 µl PBS or 0.02% EDTA, trypsinized, followed by harvesting at 37°C. 200 µl cell suspension was transferred into 1.5 ml microcentrifuge tube. To the cell suspension, 300 µl PBS followed by 500 µl of 0.4% trypan blue solution was added. To get the homogenised solution, the microcentrifuge tube was gently tapped for 5 min, 20 µl of cell suspension was loaded in to a chamber of the haemocytometer.
# QF DNA = experiment: Stop assay (inhibition of in vitro DNA synthesis) with QF DNA; format: biochemical; details: for ligand concentration range of complete / maximum inhibition of DNA synthesis: 5 µM QF DNA; for percentage of DNA synthesis inhibition with QF DNA: at the respective half maximal inhibitory concentration; for Ki: competitive inhibition against dNTPs, Taq polymerase, read-out: inhibition constant (Ki), Cheng-Prusoff equation
# Procedure: (§4) The G-quadruplex structure forming region of QF oligonucleotide is shown in bold letters.
# (§5) To the PCR reaction mixture (25 µl) containing 10 mM Tris-HCl, pH 8.3, with 50 mM KCl, 1.5 mM Mg(OAc)2, 5 µM of each oligonucleotide, 1 mM dNTPs, 5 units of Taq polymerase, L1, L2, L3 were added at various concentrations (50 µM, 100 µM, 150 µM, 200 µM), and PCR reactions were performed. PCR mixture without any ligand was considered as control. The primers were 5′ end-labelled with [γ-^32P] ATP using 1 µl of polynucleotide kinase and 5 µl of 10× kinase buffer and the contents were incubated at 37°C for 5 min. Stop assay was performed using an ABI thermal cycler. Initial denaturation was done at 94°C for 3 min, followed by 20 repeated cycles each having 94°C for 30 sec, 58°C for 30 sec, and 72°C for 30 sec. After PCR, 5 µl of the amplified product was loaded on a 12% non-denaturing polyacrylamide gel with 1×TBE. The in vitro DNA synthetic band intensity was measured using Bio Rad Gel Doc XR+system (USA). The band intensity of the PCR product obtained with no ligand was taken as control for all the quadruplex forming DNA samples (QF DNA). Percentage of DNA synthesis inhibition was calculated using equation 1, whereas, inhibition constant, Ki (using Cheng-Prusoff equation) for each ligand was calculated by using equation 2. [drawing 2] (1)
# B16F10 cells [5] = experiment: Flow cytometry cell cycle analysis (PI); format: cell-based, human; details: for cells in G0/G1 phase / cells in G2/M phase / cells in S phase / cells in Sub G1 phase: 200 µM L1, 125 µM L2, 50 µM L3, 3 h
# Procedure: as §3
# [6] = system: dsDNA (poly-dA-dT and poly-dT-dA); experiment: SYBR Green melting study with dsDNA; format: binding; details: 5 µM dsDNA, 1 µM ligand; dsDNA alone 24°C
# Procedure: When quadruplex DNA melts to form ssDNA structure, SG fluorescence intensity gradually reduces as SG has no binding to ssDNA. Each time, 5 µM of HQF DNA [d(T2AG3)4)], 5 µM of dsDNA (prepared by mixing equal concentration of poly-dA-dT and poly-dT-dA), 5 µM ssDNA ( poly dT alone) and 1 µM of each ligand was incubated at 4°C for 16 h, and used for melting studies. […] Affinity, stoichiometry and thermodynamic parameters for quadruplex-ligand complex were studied with 60 µM of ligand and 10 µM of HQF DNA using Microcal VP-ITC (Northampton, MA, USA). Ligand addition to G-quadruplex DNA was made every 180 seconds. Titration experiments were performed thrice and blank correction was made each time to minimize error.
# NQF DNA = experiment: Stop assay (inhibition of in vitro DNA synthesis) with NQF DNA; format: biochemical; details: 5 µM NQF DNA
# Procedure: as §4, §5
# [7] = CRL-2115 cells (normal cell line), CRL-2115, 24 h
# [8] = CRL-2115 cells (normal cell line), CRL-2115, 48 h
# [9] = CRL-2120 cells (normal cell line), CRL-2120, 24 h
# [10] = CRL-2120 cells (normal cell line), CRL-2120, 48 h
# [11] = NCM-460 cells (normal cell line), NCM-460, 24 h
# [12] = NCM-460 cells (normal cell line), NCM-460, 48 h
Compound,tumor size (B16F10 melanoma cells [1]),Number of days survived (B16F10 melanoma cells [2]),survival period of treated mice (B16F10 melanoma cells [2]),Cells Alive (B16F10 cells [3]) [%],Early apoptotic (B16F10 cells [3]) [%],Late apoptotic (B16F10 cells [3]) [%],Necrotic (B16F10 cells [3]) [%],Total apoptotic cells (B16F10 cells [3]) [%],"viability at 24 h [4, 7] [%]","viability at 48 h [4, 8] [%]","viability at 24 h [4, 9] [%]","viability at 48 h [4, 10] [%]","viability at 24 h [4, 11] [%]","viability at 48 h [4, 12] [%]",ligand concentration range of complete / maximum inhibition of DNA synthesis (QF DNA) [µM],percentage of DNA synthesis inhibition with QF DNA (QF DNA) [%],Ki (QF DNA) [nM],cells in G0/G1 phase (B16F10 cells [5]),cells in G2/M phase (B16F10 cells [5]),cells in S phase (B16F10 cells [5]),further results
Cc1cn([C@H]2C[C@H](n3cc(-c4ccccc4)nn3)[C@@H](CO)O2)c(=O)[nH]c1=O [Ligand L2],6000–8000 mm^3,31 (±4) days,~5 weeks,22.88,04.82,19.07,53.23,23.89,80 to 90,50 to 60,80 to 90,50 to 60,80 to 90,50 to 60,150 to 200,91,1840,07.78%,1.93% and 01.93%,8.77% and 08.77%,cells in Sub G1 phase (B16F10 cells [5]): 81.5% and 81.52%
"Cc1cn([C@H]2C[C@H](N=[N+]=[N-])[C@@H](CO)O2)c(=O)[nH]c1=O [Ligand L1, 1-(4-azido 5-(hydroxylmethyl)tetrahydrofuran-2-yl)-5-methyl pyrimidi-ne-2,4(1H,3H)-dione, reference compound]",6000–8000 mm^3,25 (±5) days,~4 weeks,68.78,02.61,12.05,16.56,14.66,80 to 90,50 to 60,80 to 90,50 to 60,80 to 90,50 to 60,150 to 200,84,2940,26.94%,5.58% and 05.58%,06.38%,cells in Sub G1 phase (B16F10 cells [5]): 61.10%
"Cc1cn([C@H]2C[C@H](n3cc(-c4ccc(Cl)cc4)nn3)[C@@H](CO)O2)c(=O)[nH]c1=O [Ligand L3, 1-(4-(4-(4-chlorophenly)-1H-1,2,3-triazole-1-yl)-5-(hydroxymethyl)tetrahydrofuran-2-yl)-5-methylpyrimidine-2,3(1H,3H)-dione]",≈ 4500 mm^3,40 (±6) days,about 6 weeks,17.79,20.99,60.26,00.96,81.25,80 to 90,50 to 60,80 to 90,50 to 60,80 to 90,50 to 60,50 to 100,94,735,4.46% and 04.46%,0.91% and 00.91%,5.36% and 05.36%,Tm of dsDNA with ligand [6]: 25 °C; inhibition of in vitro DNA synthesis with NQF DNA (NQF DNA): around 33%; cells in Sub G1 phase (B16F10 cells [5]): 89.27%; subG1 cell population enhanced compared to other nucleoside ligands (B16F10 cells [5]; L3 versus L1 and L2): 10–30%
